Literature values as cited in US5578629A, “Benzamide-containing inhibitors of farnesyl-protein transferase” (Merck & Co., Inc., priority 1995, dated 1996).

System: farnesyl-protein transferase
Conditions: via inhibition of HMG-CoA reductase

| Structure (SMILES) | Indirect inhibition of farnesyl-protein transferase in vivo |
| --- | --- |
| CC[C@H](C)C(=O)O[C@H]1C[C@@H](C)C=C2C=C[C@H](C)[C@H](CC[C@@H]3C[C@@H](O)CC(=O)O3)[C@H]21 [lovastatin] | Indirect inhibition of farnesyl-protein transferase in vivo has been demonstrated |
| CC[C@H](C)C(=O)O[C@H]1CCC=C2C=C[C@H](C)[C@H](CC[C@@H]3C[C@@H](O)CC(=O)O3)[C@H]21 [compactin] | Indirect inhibition of farnesyl-protein transferase in vivo has been demonstrated |
